pIC50: −log10 of the molar value.
molecular target: ErbB2 insYVMA (HER2-YVMA, SEQ ID NO: 2) (Homo sapiens, UniProt P04626, INS775YVMA/P1170A); assay: biochemical; conditions: ErbB2 insYVMA enzyme assay; read-out: Assay 1 IC50
Sequence (P04626 with tags, fused parts or gaps INS775YVMA/P1170A limits assumed): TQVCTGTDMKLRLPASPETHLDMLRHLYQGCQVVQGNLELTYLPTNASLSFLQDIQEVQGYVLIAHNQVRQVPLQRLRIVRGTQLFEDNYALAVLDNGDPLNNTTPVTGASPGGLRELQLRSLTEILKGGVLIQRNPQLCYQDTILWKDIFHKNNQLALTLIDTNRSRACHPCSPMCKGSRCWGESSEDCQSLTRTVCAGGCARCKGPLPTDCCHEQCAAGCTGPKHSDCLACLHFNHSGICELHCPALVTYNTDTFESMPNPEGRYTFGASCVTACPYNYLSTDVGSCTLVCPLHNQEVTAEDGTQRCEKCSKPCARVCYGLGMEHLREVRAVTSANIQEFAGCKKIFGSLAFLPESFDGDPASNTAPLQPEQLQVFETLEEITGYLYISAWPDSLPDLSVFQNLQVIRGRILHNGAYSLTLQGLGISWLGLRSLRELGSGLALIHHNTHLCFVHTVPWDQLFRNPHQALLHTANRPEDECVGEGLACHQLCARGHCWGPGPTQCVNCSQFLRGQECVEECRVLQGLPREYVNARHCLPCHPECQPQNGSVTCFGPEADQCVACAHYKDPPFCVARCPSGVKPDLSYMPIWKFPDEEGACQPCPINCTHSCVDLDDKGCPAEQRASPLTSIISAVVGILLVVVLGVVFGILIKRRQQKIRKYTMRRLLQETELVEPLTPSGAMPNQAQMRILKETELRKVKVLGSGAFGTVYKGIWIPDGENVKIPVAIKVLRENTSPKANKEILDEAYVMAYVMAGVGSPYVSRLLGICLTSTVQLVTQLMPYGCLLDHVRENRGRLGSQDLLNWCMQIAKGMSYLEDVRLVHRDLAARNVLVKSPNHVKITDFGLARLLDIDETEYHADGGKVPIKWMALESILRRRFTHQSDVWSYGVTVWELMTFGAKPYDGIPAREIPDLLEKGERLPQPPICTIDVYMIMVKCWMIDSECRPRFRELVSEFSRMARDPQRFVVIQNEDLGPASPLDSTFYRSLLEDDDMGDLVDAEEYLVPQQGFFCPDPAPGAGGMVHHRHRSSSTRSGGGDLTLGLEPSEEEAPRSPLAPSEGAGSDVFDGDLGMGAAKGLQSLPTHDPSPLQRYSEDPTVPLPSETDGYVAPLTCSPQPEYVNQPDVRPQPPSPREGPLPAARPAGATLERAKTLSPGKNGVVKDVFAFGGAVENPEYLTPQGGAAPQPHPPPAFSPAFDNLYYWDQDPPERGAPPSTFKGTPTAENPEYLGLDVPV

Row | SMILES | pIC50
1 | Cc1cc(Nc2ncnc3cnc(O[C@H]4CCN(C)C[C@@H]4F)nc23)ccc1Oc1ccc2c(c1)ncn2C [Example 288] | 7.10
2 | Cc1cc(Nc2ncnc3cnc(O[C@H]4CNCC[C@@H]4F)nc23)ccc1Oc1ccc2c(c1)ncn2C [Example 289] | 6.96
3 | Cc1cc(Nc2ncnc3cnc(O[C@H]4CNCC[C@H]4F)nc23)ccc1Oc1ccc2c(c1)ncn2C [Example 290] | 7.03
4 | Cc1cc(Nc2ncnc3cnc(OCC4(F)CNC4)nc23)ccc1Oc1ccc2c(c1)ncn2C [Example 291] | 7.12
5 | Cc1cc(Nc2ncnc3cnc(OCC4(F)CN(C)C4)nc23)ccc1Oc1ccc2c(c1)ncn2C [Example 292] | 6.98
6 | Cc1cc(Nc2ncnc3cnc(O[C@H]4CN(C)CC[C@H]4F)nc23)ccc1Oc1ccc2c(c1)ncn2C [Example 293] | 7.06
7 | Cc1cc(Nc2ncnc3cnc(O[C@@H]4CNC[C@H](F)C4)nc23)ccc1Oc1ccc2c(c1)ncn2C [Example 295] | 6.94
8 | Cc1cc(Nc2ncnc3cnc(O[C@H]4CN(C)CC[C@@H]4F)nc23)ccc1Oc1ccc2c(c1)ncn2C [Example 296] | 7.22
9 | COC1(C)CN(c2ncc3ncnc(Nc4ccc(Oc5ccc6c(c5)ncn6C)c(C)c4)c3n2)C1 [Example 298] | 7.40
10 | Cc1cc(Nc2ncnc3cnc(N4CC5(C4)CC5(F)F)nc23)ccc1Oc1ccc2c(c1)ncn2C [Example 300] | 7.12
11 | Cc1cc(Nc2ncnc3cnc(O[C@@H]4CNCC4(F)F)nc23)ccc1Oc1ccc2c(c1)ncn2C [Example 301] | 7.41
12 | Cc1cc(Nc2ncnc3cnc(O[C@H]4C[C@@H](F)CN(C)C4)nc23)ccc1Oc1ccc2c(c1)ncn2C [Example 302] | 7.18
13 | Cc1cc(Nc2ncnc3cnc(O[C@H]4CNCC4(F)F)nc23)ccc1Oc1ccc2c(c1)ncn2C [Example 303] | 7.19
14 | Cc1cc(Nc2ncnc3cnc(N(C)[C@@H]4CN(C)C[C@@H]4F)nc23)ccc1Oc1ccc2c(c1)ncn2C [Example 305] | 7.85
15 | Cc1c(Oc2ccn3ncnc3c2)ccc(Nc2ncnc3cnc(N(C)CC(C)(C)O)nc23)c1F [Example 306] | 7.78

molecular target: ErbB2 WT (Homo sapiens (Human), UniProt P04626); assay: ErbB enzyme assay (CisBio HTRF KinEASE-TK), Assay 2; format: biochemical; conditions: not given
Outline: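 ErbB2 phosphorylates 250 nM biotin-TK substrate at 1 mM ATP in 25 mM HEPES pH 7.4, 10 mM MgCl2, 0.01% Triton X-100 and 2% DMSO, for 30 min at 22 °C. Product is detected by HTRF with Sa-XL665 and TK-Ab-Cryptate. Percent of control is set by DMSO-only wells and pre-quenched wells.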

Row | SMILES | pIC50
16 | Cc1cc(Nc2ncnc3cnc(O[C@H]4CCN(C)C[C@@H]4F)nc23)ccc1Oc1ccc2c(c1)ncn2C [Example 288] | 6.58
17 | Cc1cc(Nc2ncnc3cnc(O[C@H]4CNCC[C@@H]4F)nc23)ccc1Oc1ccc2c(c1)ncn2C [Example 289] | 6.23
18 | Cc1cc(Nc2ncnc3cnc(O[C@H]4CNCC[C@H]4F)nc23)ccc1Oc1ccc2c(c1)ncn2C [Example 290] | 6.22
19 | Cc1cc(Nc2ncnc3cnc(OCC4(F)CNC4)nc23)ccc1Oc1ccc2c(c1)ncn2C [Example 291] | 6.35
20 | Cc1cc(Nc2ncnc3cnc(OCC4(F)CN(C)C4)nc23)ccc1Oc1ccc2c(c1)ncn2C [Example 292] | 6.25
21 | Cc1cc(Nc2ncnc3cnc(O[C@H]4CN(C)CC[C@H]4F)nc23)ccc1Oc1ccc2c(c1)ncn2C [Example 293] | 6.25
22 | Cc1cc(Nc2ncnc3cnc(O[C@@H]4CNC[C@H](F)C4)nc23)ccc1Oc1ccc2c(c1)ncn2C [Example 295] | 6.26
23 | Cc1cc(Nc2ncnc3cnc(O[C@H]4CN(C)CC[C@@H]4F)nc23)ccc1Oc1ccc2c(c1)ncn2C [Example 296] | 6.85
24 | COC1(C)CN(c2ncc3ncnc(Nc4ccc(Oc5ccc6c(c5)ncn6C)c(C)c4)c3n2)C1 [Example 298] | 6.63
25 | Cc1cc(Nc2ncnc3cnc(N4CC5(C4)CC5(F)F)nc23)ccc1Oc1ccc2c(c1)ncn2C [Example 300] | 6.55
26 | Cc1cc(Nc2ncnc3cnc(O[C@@H]4CNCC4(F)F)nc23)ccc1Oc1ccc2c(c1)ncn2C [Example 301] | 6.62
27 | Cc1cc(Nc2ncnc3cnc(O[C@H]4C[C@@H](F)CN(C)C4)nc23)ccc1Oc1ccc2c(c1)ncn2C [Example 302] | 6.41
28 | Cc1cc(Nc2ncnc3cnc(O[C@H]4CNCC4(F)F)nc23)ccc1Oc1ccc2c(c1)ncn2C [Example 303] | 6.40
29 | Cc1cc(Nc2ncnc3cnc(N(C)[C@@H]4CN(C)C[C@@H]4F)nc23)ccc1Oc1ccc2c(c1)ncn2C [Example 305] | 7.69
30 | Cc1c(Oc2ccn3ncnc3c2)ccc(Nc2ncnc3cnc(N(C)CC(C)(C)O)nc23)c1F [Example 306] | 7.45

molecular target: EGFR (Homo sapiens (Human), UniProt P00533); assay: ErbB enzyme assay (CisBio HTRF KinEASE-TK), Assay 3; format: biochemical; conditions: not given
Outline: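 HTRF KinEASE-TK assay: kinase with 250 nM biotinylated TK-substrate and 1 mM ATP in 25 mM HEPES pH 7.4, 10 mM MgCl2, 0.01% Triton X-100, 2% DMSO, 30 min at 22 °C. Quenched with Sa-XL665/TK-Ab-Cryptate, read after 1 h. IC50 from 4-parameter fit of percent of control.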

EGFR, sequence (P00533 25-1210): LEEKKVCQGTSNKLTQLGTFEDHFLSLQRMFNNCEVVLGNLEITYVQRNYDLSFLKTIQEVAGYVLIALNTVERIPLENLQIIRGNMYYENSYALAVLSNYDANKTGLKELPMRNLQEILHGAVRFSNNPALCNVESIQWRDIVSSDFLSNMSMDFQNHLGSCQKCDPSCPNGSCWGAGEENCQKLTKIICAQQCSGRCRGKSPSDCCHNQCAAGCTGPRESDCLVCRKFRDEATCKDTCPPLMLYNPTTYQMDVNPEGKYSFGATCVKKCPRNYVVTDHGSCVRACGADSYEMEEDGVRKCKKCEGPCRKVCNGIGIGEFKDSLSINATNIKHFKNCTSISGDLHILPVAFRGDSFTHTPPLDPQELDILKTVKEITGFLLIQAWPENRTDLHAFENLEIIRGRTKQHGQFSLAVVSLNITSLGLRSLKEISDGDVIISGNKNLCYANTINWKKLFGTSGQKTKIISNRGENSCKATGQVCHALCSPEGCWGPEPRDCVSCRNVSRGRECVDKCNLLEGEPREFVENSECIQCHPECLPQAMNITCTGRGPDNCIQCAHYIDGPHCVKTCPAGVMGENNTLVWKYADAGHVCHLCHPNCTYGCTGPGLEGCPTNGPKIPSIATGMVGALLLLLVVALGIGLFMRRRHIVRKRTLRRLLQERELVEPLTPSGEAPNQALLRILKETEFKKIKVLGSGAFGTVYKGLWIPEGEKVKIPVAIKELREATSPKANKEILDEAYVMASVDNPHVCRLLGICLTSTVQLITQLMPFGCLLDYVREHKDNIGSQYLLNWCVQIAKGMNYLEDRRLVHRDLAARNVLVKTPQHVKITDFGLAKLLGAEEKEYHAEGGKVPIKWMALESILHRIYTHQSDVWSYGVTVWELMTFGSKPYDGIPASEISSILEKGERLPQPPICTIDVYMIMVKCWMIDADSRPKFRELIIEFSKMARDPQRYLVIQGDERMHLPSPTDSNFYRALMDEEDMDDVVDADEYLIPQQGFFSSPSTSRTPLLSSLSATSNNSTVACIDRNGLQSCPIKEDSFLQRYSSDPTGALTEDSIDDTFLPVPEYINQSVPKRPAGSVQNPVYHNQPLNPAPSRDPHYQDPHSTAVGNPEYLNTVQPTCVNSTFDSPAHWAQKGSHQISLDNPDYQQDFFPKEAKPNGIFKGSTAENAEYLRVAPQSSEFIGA

Row | SMILES | pIC50
31 | Cc1cc(Nc2ncnc3cnc(O[C@H]4CCN(C)C[C@@H]4F)nc23)ccc1Oc1ccc2c(c1)ncn2C [Example 288] | ≤ 5.00
32 | Cc1cc(Nc2ncnc3cnc(O[C@H]4CNCC[C@@H]4F)nc23)ccc1Oc1ccc2c(c1)ncn2C [Example 289] | ≤ 5.00
33 | Cc1cc(Nc2ncnc3cnc(O[C@H]4CNCC[C@H]4F)nc23)ccc1Oc1ccc2c(c1)ncn2C [Example 290] | ≤ 5.00
34 | Cc1cc(Nc2ncnc3cnc(OCC4(F)CNC4)nc23)ccc1Oc1ccc2c(c1)ncn2C [Example 291] | ≤ 5.00
35 | Cc1cc(Nc2ncnc3cnc(OCC4(F)CN(C)C4)nc23)ccc1Oc1ccc2c(c1)ncn2C [Example 292] | ≤ 5.00
36 | Cc1cc(Nc2ncnc3cnc(O[C@H]4CN(C)CC[C@H]4F)nc23)ccc1Oc1ccc2c(c1)ncn2C [Example 293] | ≤ 5.00
37 | Cc1cc(Nc2ncnc3cnc(O[C@@H]4CNC[C@H](F)C4)nc23)ccc1Oc1ccc2c(c1)ncn2C [Example 295] | ≤ 5.00
38 | Cc1cc(Nc2ncnc3cnc(O[C@H]4CN(C)CC[C@@H]4F)nc23)ccc1Oc1ccc2c(c1)ncn2C [Example 296] | ≤ 5.00
39 | COC1(C)CN(c2ncc3ncnc(Nc4ccc(Oc5ccc6c(c5)ncn6C)c(C)c4)c3n2)C1 [Example 298] | ≤ 5.00
40 | Cc1cc(Nc2ncnc3cnc(N4CC5(C4)CC5(F)F)nc23)ccc1Oc1ccc2c(c1)ncn2C [Example 300] | ≤ 5.00
41 | Cc1cc(Nc2ncnc3cnc(O[C@@H]4CNCC4(F)F)nc23)ccc1Oc1ccc2c(c1)ncn2C [Example 301] | ≤ 5.00
42 | Cc1cc(Nc2ncnc3cnc(O[C@H]4C[C@@H](F)CN(C)C4)nc23)ccc1Oc1ccc2c(c1)ncn2C [Example 302] | ≤ 5.00
43 | Cc1cc(Nc2ncnc3cnc(O[C@H]4CNCC4(F)F)nc23)ccc1Oc1ccc2c(c1)ncn2C [Example 303] | ≤ 5.00
44 | Cc1cc(Nc2ncnc3cnc(N(C)[C@@H]4CN(C)C[C@@H]4F)nc23)ccc1Oc1ccc2c(c1)ncn2C [Example 305] | 5.73
45 | Cc1c(Oc2ccn3ncnc3c2)ccc(Nc2ncnc3cnc(N(C)CC(C)(C)O)nc23)c1F [Example 306] | 5.17

molecular target: ErbB2 with Exon 20 YVMA insertion (HER2-YVMA) (Homo sapiens (Human), UniProt P04626, INS775YVMA); assay: Cellular phosphorylation assay, constitutive ErbB2 phosphorylation (Y1196) in engineered NIH 3T3 cells, Assay 4; format: cell-based; conditions: not given
Outline: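 Engineered NIH 3T3 cells expressing HER2-YVMA treated with compounds 1 h at 37 °C, then formaldehyde-fixed and methanol-permeabilized. pErbB2 Y1196 detected by in-cell infrared immunofluorescence, normalized to GAPDH. IC50 from the normalized curves.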

ErbB2 with Exon 20 YVMA insertion (HER2-YVMA), sequence (P04626 other isoform, or with tags, fused parts or gaps ins YVMA behind 775): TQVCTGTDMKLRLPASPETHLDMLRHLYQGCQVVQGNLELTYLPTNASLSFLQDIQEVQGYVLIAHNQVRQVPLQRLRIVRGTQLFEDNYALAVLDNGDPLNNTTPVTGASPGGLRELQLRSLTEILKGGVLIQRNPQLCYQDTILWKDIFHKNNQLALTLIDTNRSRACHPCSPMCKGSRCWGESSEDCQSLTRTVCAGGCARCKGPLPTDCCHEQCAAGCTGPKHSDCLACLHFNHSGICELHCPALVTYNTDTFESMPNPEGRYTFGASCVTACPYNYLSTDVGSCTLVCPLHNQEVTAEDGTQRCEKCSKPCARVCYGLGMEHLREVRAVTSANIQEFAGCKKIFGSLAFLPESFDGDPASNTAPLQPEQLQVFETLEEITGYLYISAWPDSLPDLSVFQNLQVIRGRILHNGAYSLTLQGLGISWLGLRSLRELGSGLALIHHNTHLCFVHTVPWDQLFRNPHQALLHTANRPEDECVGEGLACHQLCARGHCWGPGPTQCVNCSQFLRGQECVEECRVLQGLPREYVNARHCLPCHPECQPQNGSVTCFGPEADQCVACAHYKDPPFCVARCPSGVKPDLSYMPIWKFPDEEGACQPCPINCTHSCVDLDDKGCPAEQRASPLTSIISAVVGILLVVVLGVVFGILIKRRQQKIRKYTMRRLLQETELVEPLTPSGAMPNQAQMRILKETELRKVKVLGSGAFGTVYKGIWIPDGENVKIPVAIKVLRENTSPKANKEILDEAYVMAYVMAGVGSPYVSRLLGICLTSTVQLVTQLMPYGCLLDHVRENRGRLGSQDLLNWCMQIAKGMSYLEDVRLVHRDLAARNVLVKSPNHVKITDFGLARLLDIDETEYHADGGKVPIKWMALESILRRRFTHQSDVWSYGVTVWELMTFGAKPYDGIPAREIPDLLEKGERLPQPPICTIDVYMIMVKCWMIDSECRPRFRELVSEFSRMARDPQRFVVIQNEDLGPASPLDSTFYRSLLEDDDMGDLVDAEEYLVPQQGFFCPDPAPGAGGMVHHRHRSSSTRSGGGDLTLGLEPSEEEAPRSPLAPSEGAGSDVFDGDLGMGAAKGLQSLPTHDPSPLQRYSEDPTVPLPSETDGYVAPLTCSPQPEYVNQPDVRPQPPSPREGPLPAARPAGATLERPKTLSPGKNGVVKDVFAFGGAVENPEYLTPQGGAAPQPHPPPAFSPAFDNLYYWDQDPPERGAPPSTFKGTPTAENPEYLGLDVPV

Row | SMILES | pIC50
46 | Cc1cc(Nc2ncnc3cnc(O[C@H]4CCN(C)C[C@@H]4F)nc23)ccc1Oc1ccc2c(c1)ncn2C [Example 288] | 7.03
47 | Cc1cc(Nc2ncnc3cnc(O[C@H]4CNCC[C@@H]4F)nc23)ccc1Oc1ccc2c(c1)ncn2C [Example 289] | 7.13
48 | Cc1cc(Nc2ncnc3cnc(O[C@H]4CNCC[C@H]4F)nc23)ccc1Oc1ccc2c(c1)ncn2C [Example 290] | 7.08
49 | Cc1cc(Nc2ncnc3cnc(OCC4(F)CNC4)nc23)ccc1Oc1ccc2c(c1)ncn2C [Example 291] | 7.08
50 | Cc1cc(Nc2ncnc3cnc(OCC4(F)CN(C)C4)nc23)ccc1Oc1ccc2c(c1)ncn2C [Example 292] | 6.88
51 | Cc1cc(Nc2ncnc3cnc(O[C@H]4CN(C)CC[C@H]4F)nc23)ccc1Oc1ccc2c(c1)ncn2C [Example 293] | 7.09
52 | Cc1cc(Nc2ncnc3cnc(O[C@@H]4CNC[C@H](F)C4)nc23)ccc1Oc1ccc2c(c1)ncn2C [Example 295] | 7.39
53 | Cc1cc(Nc2ncnc3cnc(O[C@H]4CN(C)CC[C@@H]4F)nc23)ccc1Oc1ccc2c(c1)ncn2C [Example 296] | 7.17
54 | COC1(C)CN(c2ncc3ncnc(Nc4ccc(Oc5ccc6c(c5)ncn6C)c(C)c4)c3n2)C1 [Example 298] | 7.41
55 | Cc1cc(Nc2ncnc3cnc(N4CC5(C4)CC5(F)F)nc23)ccc1Oc1ccc2c(c1)ncn2C [Example 300] | 7.51
56 | Cc1cc(Nc2ncnc3cnc(O[C@@H]4CNCC4(F)F)nc23)ccc1Oc1ccc2c(c1)ncn2C [Example 301] | 7.22
57 | Cc1cc(Nc2ncnc3cnc(O[C@H]4C[C@@H](F)CN(C)C4)nc23)ccc1Oc1ccc2c(c1)ncn2C [Example 302] | 6.85
58 | Cc1cc(Nc2ncnc3cnc(O[C@H]4CNCC4(F)F)nc23)ccc1Oc1ccc2c(c1)ncn2C [Example 303] | 6.59
59 | Cc1cc(Nc2ncnc3cnc(N(C)[C@@H]4CN(C)C[C@@H]4F)nc23)ccc1Oc1ccc2c(c1)ncn2C [Example 305] | 7.97
60 | Cc1c(Oc2ccn3ncnc3c2)ccc(Nc2ncnc3cnc(N(C)CC(C)(C)O)nc23)c1F [Example 306] | 6.00

molecular target: EGFR wild type (EGFR WT) (Homo sapiens (Human), UniProt P00533); assay: Cellular phosphorylation assay, EGF-stimulated EGFR phosphorylation in engineered NIH 3T3 cells, Phospho-EGFR DuoSet IC ELISA, Assay 5; format: cell-based; conditions: not given
Outline: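 NIH 3T3 cells expressing EGFR WT (20,000/well, attached overnight) were exposed to serially diluted compound for 1 h at 37 °C, then stimulated with 100 ng/ml rEGF for 10 min. Phospho-EGFR in lysates measured by sandwich ELISA optical density; IC50 from curves.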

EGFR wild type (EGFR WT), sequence (P00533 25-1210): as the sequence (P00533 25-1210) above

Row | SMILES | pIC50
61 | Cc1cc(Nc2ncnc3cnc(O[C@H]4CCN(C)C[C@@H]4F)nc23)ccc1Oc1ccc2c(c1)ncn2C [Example 288] | ≤ 5.30
62 | Cc1cc(Nc2ncnc3cnc(O[C@H]4CNCC[C@@H]4F)nc23)ccc1Oc1ccc2c(c1)ncn2C [Example 289] | ≤ 5.30
63 | Cc1cc(Nc2ncnc3cnc(O[C@H]4CNCC[C@H]4F)nc23)ccc1Oc1ccc2c(c1)ncn2C [Example 290] | ≤ 5.30
64 | Cc1cc(Nc2ncnc3cnc(OCC4(F)CNC4)nc23)ccc1Oc1ccc2c(c1)ncn2C [Example 291] | ≤ 5.30
65 | Cc1cc(Nc2ncnc3cnc(OCC4(F)CN(C)C4)nc23)ccc1Oc1ccc2c(c1)ncn2C [Example 292] | ≤ 5.30
66 | Cc1cc(Nc2ncnc3cnc(O[C@H]4CN(C)CC[C@H]4F)nc23)ccc1Oc1ccc2c(c1)ncn2C [Example 293] | ≤ 5.30
67 | Cc1cc(Nc2ncnc3cnc(O[C@@H]4CNC[C@H](F)C4)nc23)ccc1Oc1ccc2c(c1)ncn2C [Example 295] | ≤ 5.30
68 | Cc1cc(Nc2ncnc3cnc(O[C@H]4CN(C)CC[C@@H]4F)nc23)ccc1Oc1ccc2c(c1)ncn2C [Example 296] | ≤ 5.30
69 | COC1(C)CN(c2ncc3ncnc(Nc4ccc(Oc5ccc6c(c5)ncn6C)c(C)c4)c3n2)C1 [Example 298] | ≤ 5.30
70 | Cc1cc(Nc2ncnc3cnc(N4CC5(C4)CC5(F)F)nc23)ccc1Oc1ccc2c(c1)ncn2C [Example 300] | ≤ 5.30
71 | Cc1cc(Nc2ncnc3cnc(O[C@@H]4CNCC4(F)F)nc23)ccc1Oc1ccc2c(c1)ncn2C [Example 301] | ≤ 5.30
72 | Cc1cc(Nc2ncnc3cnc(O[C@H]4C[C@@H](F)CN(C)C4)nc23)ccc1Oc1ccc2c(c1)ncn2C [Example 302] | ≤ 5.30
73 | Cc1cc(Nc2ncnc3cnc(O[C@H]4CNCC4(F)F)nc23)ccc1Oc1ccc2c(c1)ncn2C [Example 303] | ≤ 5.30
74 | Cc1cc(Nc2ncnc3cnc(N(C)[C@@H]4CN(C)C[C@@H]4F)nc23)ccc1Oc1ccc2c(c1)ncn2C [Example 305] | ≤ 5.30
75 | Cc1c(Oc2ccn3ncnc3c2)ccc(Nc2ncnc3cnc(N(C)CC(C)(C)O)nc23)c1F [Example 306] | ≤ 5.30
